Test results from paper PMC9841521, “Subnanomolar Affinity and Selective Antagonism at α7 Nicotinic Receptor by Combined Modifications of 2-Triethylammonium Ethyl Ether of 4-Stilbenol (MG624)” (Journal of Medicinal Chemistry, 2022).
Entries after “also recorded” stand apart in the source; their conditions may differ. Read-outs that look alike come from different tables or passages of the source.

Assays:
human α3β4-nAChR subtype = biological target: T1, human α3β4-nAChR subtype (Homo sapiens, UniProt P30926+P32297); test: Competition binding with [3H]epibatidine, membranes of SH-EP1 cells stably transfected with α3 and β4; conditions: for Ki: human α3β4 expressed in SH-EP1 cells, confidence interval in parentheses, read-out: α3β4-nAChR [3H]-Epi Ki
T1 construct: expressed in transfected cells

human α4β2-nAChR subtype = biological target: T2, human α4β2-nAChR subtype (Homo sapiens, UniProt P17787+P43681); test: Competition binding with [3H]epibatidine, membranes of HEK 293 cells stably transfected with α4 and β2; conditions: human α4β2 expressed in HEK 293 cells; confidence interval in parentheses; read-out: α4β2-nAChR [3H]-Epi Ki
T2 construct: expressed in transfected cells; gift of Dr. Jon Lindstrom

human α7-nAChR [1] = biological target: T3, human α7-nAChR (Homo sapiens, UniProt P36544); test: Two-electrode voltage clamp, antagonism of currents activated by 1 mM ACh, test compound coapplied, X. laevis oocytes; type: cell-based; conditions: for inhibition of ACh-induced function at the α7-nAChR: maximal inhibition
human α9α10-nAChR [2] = biological target: T4, human α9α10-nAChR (Homo sapiens, UniProt Q9GZZ6+Q9UGM1); test: Two-electrode voltage clamp, antagonism of currents activated by 1 mM ACh, test compound coapplied, X. laevis oocytes (α9:α10 cRNA 9:1); type: cell-based; conditions: coapplied with 1 mM ACh; for inhibition of ACh-induced α9α10-nAChR function (in words) / IC50: up to 100 μM; for IC50: 95% confidence interval in parentheses; for inhibition of ACh-induced function at the α9α10-nAChR: maximal inhibition
T4 construct: expressed in transfected cells; host or cells: Xenopus laevis oocytes (cRNA injection, α9:α10 9:1)

human α9α10-nAChR [3] = biological target: T4, human α9α10-nAChR; test: Two-electrode voltage clamp, compound applied alone at 100 μM: intrinsic activity, rebound current, residual ACh response; type: cell-based; conditions: for partial agonism of α9α10-nAChRs, efficacy (AUC) / partial agonism of α9α10-nAChRs, efficacy (peak current): 100 μM pulse, alone, vs 1 mM ACh, range over the named compounds; for recovery of rebound current at α9α10-nAChR (in words): 1 min after test compound; for recovery of rebound current at α9α10-nAChR (in words) / residual ACh-induced current at α9α10-nAChR (in words): Figure 4; for residual ACh-induced current at α9α10-nAChR (in words): final ACh control 1 min after test compound
human α7-nAChR [4] = biological target: T3, human α7-nAChR; test: as above; type: cell-based; parameters: expressed in transfected cells; host or cells: SH-SY5Y neuroblastoma cells (transient); conditions: 100 μM pulse, vs 1 mM ACh, range over the named compounds
[5] = coapplied with 1 mM ACh, up to 100 μM
[6] = coapplied with 1 mM ACh, up to 100 μM, 95% confidence interval in parentheses, NA = not inhibited even at 100 μM, read-out: α7 IC50 (AUC)
[7] = coapplied with 1 mM ACh, up to 100 μM, 95% confidence interval in parentheses, NA = not inhibited even at 100 μM, read-out: α7 IC50 (peak current)

Compound | Ki (human α3β4-nAChR subtype) | Ki (human α4β2-nAChR subtype) | IC50 (human α9α10-nAChR [2]) | further results
CC[N+](CC)(CC)CCOc1ccccc1 [Compound 3, N,N,N-Triethyl-2-phenoxyethan-1-aminium Iodide] | 10 µM | 19 µM | – | –
C=Cc1ccc(OCC[N+](CC)(CC)CC)cc1 [Compound 4, N,N,N-Triethyl-2-(4-vinylphenoxy)ethan-1-aminium Iodide] | 1.07 µM | 24 µM | – | –
CC[N+](CC)(CC)CCOc1ccc(-c2ccccc2)cc1 [Compound 5, 2-([1,1′-Biphenyl]-4-yloxy)-N,N,N-triethylethan-1-aminium Iodide] | 0.44 µM | 11.8 µM | – | –
CC[N+](CC)(CC)CCOc1ccc(CCc2ccccc2)cc1.[I-] [Compound 6, N,N,N-Triethyl-2-(4-phenethylphenoxy)ethan-1-aminium Iodide] | 1.25 µM | – | 9.12 µM | inhibition of ACh-induced α7-nAChR function (in words) (human α7-nAChR [1]; [5]): no inhibition; also recorded: no effect; also recorded: devoid of α7-nAChR antagonism; alpha7 nAChR IC50 (AUC) (human α7-nAChR [1]; supplementary CSV): not active; alpha7 nAChR IC50 (peak current) (human α7-nAChR [1]; supplementary CSV): not active; inhibition of ACh-induced α9α10-nAChR function (in words) (human α9α10-nAChR [2]): essentially full inhibition; partial agonism of α9α10-nAChRs, efficacy (AUC) (human α9α10-nAChR [3]): 0.2–3 % of ACh control; partial agonism of α9α10-nAChRs, efficacy (peak current) (human α9α10-nAChR [3]): 5–55 % of ACh control; block of subsequent ACh-induced function at α9α10-nAChRs (in words) (human α9α10-nAChR [3]; final 1 mM ACh 1 min after 100 μM compound, Figure 3B): significantly block
CC[N+](CC)(CC)CCOc1ccc(C#Cc2ccccc2)cc1 [Compound 7, N,N,N-Triethyl-2-(4-(phenylethynyl)phenoxy)ethan-1-aminium Iodide] | 0.912 µM | 19.4 µM | – | –
CC[N+](CC)(CC)CCOc1ccc(-c2ccc3ccccc3c2)cc1 [Compound 8, N,N,N-Triethyl-2-(4-(naphthalen-2-yl)phenoxy)ethan-1-aminium Iodide] | 0.458 µM | 1.8 µM | – | –
CC[N+](CC)(CC)CCOc1ccc(-c2cccc3ccccc23)cc1.[I-] [Compound 9, N,N,N-Triethyl-2-(4-(naphthalen-1-yl)phenoxy)ethan-1-aminium Iodide] | – | – | – | higher affinity for the α3β4- than for the α7-nAChR (human α3β4-nAChR subtype; binding affinities): ≈ 30 fold
CC[N+](CC)(CC)CCOc1ccc(/C=C/c2cccc3ccccc23)cc1 [Compound 10, (E)-N,N,N-Triethyl-2-(4-(2-(naphthalen-1-yl)vinyl)phenoxy)ethan-1-aminium Iodide] | 0.501 µM | – | – | –
CC[N+](CC)(CC)CCOc1ccc(/C=C/c2ccc3ccccc3c2)cc1 [Compound 11, (E)-N,N,N-Triethyl-2-(4-(2-(naphthalen-2-yl)vinyl)phenoxy)ethan-1-aminium Iodide] | 0.425 µM | – | – | –
CC[N+](CC)(CC)CCOc1ccc(/C=C/c2cccc(C(F)(F)F)c2)cc1 [Compound 15, (E)-N,N,N-Triethyl-2-(4-(3-(trifluoromethyl)styryl)phenoxy)ethan-1-aminium Iodide] | 1.41 µM | 21.8 µM | – | –
CC[N+](CC)(CC)CCOc1ccc(/C=C/c2ccc(C(F)(F)F)cc2)cc1 [Compound 16, (E)-N,N,N-Triethyl-2-(4-(4-(trifluoromethyl)styryl)phenoxy)ethan-1-aminium Iodide] | 0.874 µM | 10.4 µM | – | –
CC[N+](CC)(CC)CCOc1ccc(/C=C/c2ccc(OC)cc2)cc1 [Compound 18, (E)-N,N,N-Triethyl-2-(4-(4-methoxystyryl)phenoxy)ethan-1-aminium Iodide] | 0.187 µM | – | – | –
CC[N+](CC)(CC)CCOc1ccc(/C=C/c2cccc(O)c2)cc1 [Compound 19, (E)-N,N,N-Triethyl-2-(4-(3-hydroxystyryl)phenoxy)ethan-1-aminium Iodide] | 0.998 µM | 10.1 µM | – | –
CC[N+](CC)(CC)CCOc1ccc(/C=C/c2ccc(O)cc2)cc1 [Compound 20, (E)-N,N,N-Triethyl-2-(4-(4-hydroxystyryl)phenoxy)ethan-1-aminium Iodide] | 0.873 µM | 9.82 µM | – | –
CC[N+](CC)(CC)CCOc1ccc(/C=C/c2cc(OC)cc(OC)c2)cc1 [Compound 21] | 0.676 µM | 1.2 µM | – | –
CC[N+](CC)(CC)CCOc1ccc(/C=C/c2cc(O)cc(O)c2)cc1 [Compound 22, (E)-2-(4-(3,5-Dihydroxystyryl)phenoxy)-N,N,N-triethylethan-1-aminium Iodide] | 0.793 µM | 7.24 µM | – | –
CC[N+](CC)(CC)CCOc1ccc(OCc2ccccc2)cc1 [Compound 23, 2-(4-(Benzyloxy)phenoxy)-N,N,N-triethylethan-1-aminium Iodide] | 4.7 µM | – | – | –
CC[N+](CC)(CC)CCOc1ccc(NC(=O)c2ccccc2)cc1 [Compound 25, 2-(4-Benzamidophenoxy)-N,N,N-triethylethan-1-aminium Iodide] | 1.07 µM | 4.5 µM | 115 µM | IC50 (human α7-nAChR [1]; [6]): 26.9 µM; IC50 (human α7-nAChR [1]; [7]): 25.7 µM
CC[N+](CC)(CC)CCOc1ccc(C(=O)Nc2ccccc2)cc1 [Compound 26, N,N,N-Triethyl-2-(4-(phenylcarbamoyl)phenoxy)ethan-1-aminium Iodide] | 0.113 µM | 23 µM | 75.9 µM | IC50 (human α7-nAChR [1]; [6]): > 100 µM; IC50 (human α7-nAChR [1]; [7]): > 100 µM; IC50 (human α7-nAChR [1]; supplementary CSV, read-out: alpha7 nAChR IC50 (AUC)): > 100 µM; IC50 (human α7-nAChR [1]; supplementary CSV, read-out: alpha7 nAChR IC50 (peak current)): > 100 µM
CC[N+](CC)(CC)CCOc1ccc(/N=N/c2ccccc2)cc1.[I-] [Compound 27, (E)-N,N,N-Triethyl-2-(4-(phenyldiazenyl)phenoxy)ethan-1-aminium Iodide] | – | – | 15.8 µM | inhibition of ACh-induced α7-nAChR function (in words) (human α7-nAChR [1]; [5]): complete or nearly complete inhibition; IC50 (human α7-nAChR [1]; [6]): 5.54 µM; IC50 (human α7-nAChR [1]; [7]): 11.2 µM; inhibition of ACh-induced α9α10-nAChR function (in words) (human α9α10-nAChR [2]): complete or nearly complete inhibition
CC[N+](CC)(CC)CCOc1ccc(-c2nc3ccccc3o2)cc1.[I-] [Compound 28, 2-(4-(Benzo[d]oxazol-2-yl)phenoxy)-N,N,N-triethylethan-1-aminium Iodide] | 0.653 µM | – | 72.4 µM | IC50 (human α7-nAChR [1]; [6]): 2.25 µM; IC50 (human α7-nAChR [1]; [7]): 1.78 µM; partial agonism at α7-nAChR, efficacy compared to ACh control (peak current) (human α7-nAChR [4]): 15–50%; partial agonism of α9α10-nAChRs, efficacy (AUC) (human α9α10-nAChR [3]): 0.2–3 % of ACh control; partial agonism of α9α10-nAChRs, efficacy (peak current) (human α9α10-nAChR [3]): 5–55 % of ACh control; recovery of rebound current at α9α10-nAChR (in words) (human α9α10-nAChR [3]): almost complete recovery; residual ACh-induced current at α9α10-nAChR (in words) (human α9α10-nAChR [3]): highest residual ACh-induced currents
CC[N+](CC)(CC)CCOc1ccc(-c2nc3ccccc3[nH]2)cc1 [Compound 29, 2-(4-(1H-Benzo[d]imidazol-2-yl)phenoxy)-N,N,N-triethylethan-1-aminium Iodide] | 0.345 µM | – | 202 µM | IC50 (human α7-nAChR [1]; [6]): 197 µM; IC50 (human α7-nAChR [1]; [7]): 182 µM
CC[N+](CC)(CC)CCOc1ccc(-c2ccc3cc[nH]c3c2)cc1.[I-] [Compound 30, 2-(4-(1H-Indol-6-yl)phenoxy)-N,N,N-triethylethan-1-aminium Iodide] | 0.174 µM | – | 6.46 µM | inhibition of ACh-induced α7-nAChR function (in words) (human α7-nAChR [1]; [5]): complete or nearly complete inhibition; IC50 (human α7-nAChR [1]; [6]): 1.95 µM; IC50 (human α7-nAChR [1]; [7]): 1.91 µM; inhibition of ACh-induced function at the α7-nAChR (human α7-nAChR [1]; coapplied with 1 mM ACh): 100%; inhibition of ACh-induced α9α10-nAChR function (in words) (human α9α10-nAChR [2]): complete or nearly complete inhibition; inhibition of ACh-induced function at the α9α10-nAChR (human α9α10-nAChR [2]): 100%
CC[N+](CC)(CC)CCOc1ccc(-c2ccc3[nH]ccc3c2)cc1.[I-] [Compound 31, 2-(4-(1H-Indol-5-yl)phenoxy)-N,N,N-triethylethan-1-aminium Iodide] | 0.177 µM | – | 8.13 µM | inhibition of ACh-induced α7-nAChR function (in words) (human α7-nAChR [1]; [5]): complete or nearly complete inhibition; IC50 (human α7-nAChR [1]; [6]): 1.86 µM; IC50 (human α7-nAChR [1]; [7]): 2.01 µM; inhibition of ACh-induced function at the α7-nAChR (human α7-nAChR [1]; coapplied with 1 mM ACh): 100%; inhibition of ACh-induced α9α10-nAChR function (in words) (human α9α10-nAChR [2]): complete or nearly complete inhibition; inhibition of ACh-induced function at the α9α10-nAChR (human α9α10-nAChR [2]): 100%
CC[N+](CC)(CC)CCOc1ccc(-c2ccc3occc3c2)cc1 [Compound 32, 2-(4-(Benzofuran-5-yl)phenoxy)-N,N,N-triethylethan-1-aminium Iodide] | 0.343 µM | – | – | –
C[N+]1(C)CC[C@@H](Oc2ccc(-c3ccc4[nH]ccc4c3)cc2)C1.[I-] [Compound 33, (R)-3-(4-(1H-Indol-5-yl)phenoxy)-1,1-dimethylpyrrolidin-1-ium Iodide] | 0.365 µM | 5.1 µM | 15.9 µM | inhibition of ACh-induced α9α10-nAChR function (in words) (human α9α10-nAChR [2]): complete or nearly complete inhibition; inhibition of ACh-induced function at the α9α10-nAChR (human α9α10-nAChR [2]): 100%; partial agonism of α9α10-nAChRs, efficacy (AUC) (human α9α10-nAChR [3]): 0.2–3 % of ACh control; partial agonism of α9α10-nAChRs, efficacy (peak current) (human α9α10-nAChR [3]): 5–55 % of ACh control; recovery of rebound current at α9α10-nAChR (in words) (human α9α10-nAChR [3]): almost complete recovery; residual ACh-induced current at α9α10-nAChR (in words) (human α9α10-nAChR [3]): highest residual ACh-induced currents
